This note sets out measurements from PubChem BioAssay AID389 (SGCOxCompounds, 2006).

For this assay, the target named is Serine/threonine-protein kinase PAK 4 (Homo sapiens) (UniProt O96013). The assay is described as follows: PAK4 kinase ligand binding by thermal shift, biophysical, human, DSF, SYPRO orange (AID 389). Conditions: recombinant PAK4 DSF thermal shift, at 10 µM, protein 2 µM, buffer 10 mM HEPES, pH 7.5, NaCl 150 mM, stronger effect = higher value.
Sequence of Serine/threonine-protein kinase PAK 4 (Homo sapiens) (O96013 whole entry, looked up): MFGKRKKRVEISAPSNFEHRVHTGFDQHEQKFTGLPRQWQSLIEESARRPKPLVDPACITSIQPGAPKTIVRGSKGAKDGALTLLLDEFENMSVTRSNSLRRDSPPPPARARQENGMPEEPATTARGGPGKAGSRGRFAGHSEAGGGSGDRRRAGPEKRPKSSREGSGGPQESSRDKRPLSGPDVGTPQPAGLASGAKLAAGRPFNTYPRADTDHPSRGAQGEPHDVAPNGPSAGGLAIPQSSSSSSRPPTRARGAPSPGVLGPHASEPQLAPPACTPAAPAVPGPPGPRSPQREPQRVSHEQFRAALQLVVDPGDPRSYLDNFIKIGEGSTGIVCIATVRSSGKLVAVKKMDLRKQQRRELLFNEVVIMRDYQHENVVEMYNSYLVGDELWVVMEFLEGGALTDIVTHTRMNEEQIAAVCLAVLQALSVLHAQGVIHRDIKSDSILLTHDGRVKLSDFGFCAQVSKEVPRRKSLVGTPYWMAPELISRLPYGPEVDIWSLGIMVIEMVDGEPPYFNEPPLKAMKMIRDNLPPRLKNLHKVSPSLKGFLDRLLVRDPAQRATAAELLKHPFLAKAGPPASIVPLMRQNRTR
As to `OCC(O)CCO/N=C1/C(c2c(O)[nH]c3ccccc23)=Nc2ccccc21` (stereo not drawn), the Tm shift is 4.7 Celsius.
`N=C(N)SCCCn1cc(C2=C(c3c[nH]c4ccccc34)C(=O)NC2=O)c2ccccc21`: the Tm shift is 3.43 Celsius.
As to `O=C1NCc2c1c1c3ccccc3[nH]c1c1[nH]c3ccccc3c21`, the Tm shift is 3.8 Celsius.
As for `COc1cc(/C=C/C(=O)CC(=O)/C=C/c2ccc(O)c(OC)c2)ccc1O`, the Tm shift was 3.34 Celsius.
`CCN(CC)CCNC(=O)c1c(C)[nH]c(/C=C2\C(=O)Nc3ccc(Cl)cc32)c1C`: the Tm shift was 6.4 Celsius.
To `NC(=O)Nc1sc(-c2ccccc2)cc1C(N)=O` belongs 4.28 Celsius.
Consider `Cc1cc(Nc2nc(-c3ccccc3)nc3ccccc23)n[nH]1`, for which the Tm shift is 5.9 Celsius.
For the compound `CCn1cnc2c(Nc3cccc(Cl)c3)nc(N[C@@H]3CCCC[C@@H]3N)nc21`, the Tm shift was 6.44 Celsius.
For `CC(O)(O)C1(O)C[C@@H]2O[C@@]1(C)n1c3ccccc3c3c4c(c5c6ccccc6n2c5c31)C(=O)NC4` (stereo partly drawn), the Tm shift was 3.9 Celsius.
To `O=Nc1c(-c2c(O)[nH]c3ccc(I)cc23)[nH]c2ccccc12` belongs 3.73 Celsius.
Consider `CC(C)n1cnc2c(Nc3cccc(Cl)c3)nc(NCCO)nc21`, for which the Tm shift was 3.7 Celsius.
Take `NS(=O)(=O)c1ccc(Nc2nc(OCC3CCCCC3)c3[nH]cnc3n2)cc1`: the Tm shift is 3.8 Celsius.
`O=C(c1ccc(Nc2nccc(-c3cc4ccccc4s3)n2)cc1)N1CCC(N2CCCC2)CC1`: the Tm shift is 3.23 Celsius.
`O=C1NC(=O)c2c1c1c3ccccc3n3c1c1c2c2ccccc2n1[C@@H]1CCC3O1`: the Tm shift is 4.92 Celsius.
To `O=c1[nH]c(O)c2c1c1c3ccccc3nc1n1cncc21` belongs 3.8 Celsius.
To `Cn1cc(/C=C2\C(=O)Nc3ccc(S(N)(=O)=O)cc32)c2ccccc21` belongs 3.69 Celsius; to `N#CCCc1ccc2c(c1)-c1[nH]c3ccc(-n4oo4)cc3c1CC(=O)N2`, 3.68 Celsius.
For `Clc1ccc(-c2cnc3ccc(NC4CCOCC4)nn23)cc1`, the Tm shift is 3.1 Celsius.
Take `O=C1Cc2c([nH]c3ccc(Br)cc23)-c2ccccc2N1`: the Tm shift was 4.62 Celsius.
With `Nc1nc(Nc2ccc(S(N)(=O)=O)cc2)nn1C(=S)Nc1c(F)cccc1F`, the Tm shift was 6.03 Celsius.
With `NCCCn1cc(C2=C(c3c[nH]c4ccccc34)C(=O)NC2=O)c2ccccc21`, the Tm shift was 4.27 Celsius.
With `CC(C)C(CO)Nc1nc(Nc2cccc(Cl)c2)c2ncn(C(C)C)c2n1` (stereo not drawn), the Tm shift was 4.7 Celsius.
Next, `NCCNc1ncc(C(N)=O)c(Nc2cccc(C(F)(F)F)c2)n1`: 5.9 Celsius.
